Values after ≈ are worked out from the molar mass of the structure shown. Values joined by “and” are separate entries in the source; they are usually repeats but may differ in a detail not shown here. Identical values can stand only once. Like-named read-outs stand apart in the source and are kept apart here.
Assays:
HCoV-229E = test: Viral CPE assay in MRC-5 cells (CellTiter Glo); type: cell-based; settings: Human coronavirus 229E
CYP2C9 = CYP2C9 (Homo sapiens, UniProt P11712); test: Reversible CYP inhibition in human liver microsomes
CYP2D6 = CYP2D6 (Homo sapiens, UniProt P10635); test: as above
Chain of CYP2D6 (P10635 whole entry): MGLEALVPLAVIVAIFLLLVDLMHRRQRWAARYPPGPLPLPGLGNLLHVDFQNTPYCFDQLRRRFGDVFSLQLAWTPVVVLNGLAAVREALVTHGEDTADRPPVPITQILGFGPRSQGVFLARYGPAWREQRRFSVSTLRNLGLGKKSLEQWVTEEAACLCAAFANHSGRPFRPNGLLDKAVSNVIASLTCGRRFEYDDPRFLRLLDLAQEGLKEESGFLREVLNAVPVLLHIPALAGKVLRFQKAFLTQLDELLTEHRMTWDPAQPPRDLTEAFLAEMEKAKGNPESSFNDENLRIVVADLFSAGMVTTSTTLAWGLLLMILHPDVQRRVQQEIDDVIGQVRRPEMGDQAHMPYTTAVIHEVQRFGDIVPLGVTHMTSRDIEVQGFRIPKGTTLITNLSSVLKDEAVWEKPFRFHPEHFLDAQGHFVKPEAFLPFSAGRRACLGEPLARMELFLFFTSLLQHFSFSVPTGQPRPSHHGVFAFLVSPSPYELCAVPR

Chain of CYP2C9 (P11712 whole entry): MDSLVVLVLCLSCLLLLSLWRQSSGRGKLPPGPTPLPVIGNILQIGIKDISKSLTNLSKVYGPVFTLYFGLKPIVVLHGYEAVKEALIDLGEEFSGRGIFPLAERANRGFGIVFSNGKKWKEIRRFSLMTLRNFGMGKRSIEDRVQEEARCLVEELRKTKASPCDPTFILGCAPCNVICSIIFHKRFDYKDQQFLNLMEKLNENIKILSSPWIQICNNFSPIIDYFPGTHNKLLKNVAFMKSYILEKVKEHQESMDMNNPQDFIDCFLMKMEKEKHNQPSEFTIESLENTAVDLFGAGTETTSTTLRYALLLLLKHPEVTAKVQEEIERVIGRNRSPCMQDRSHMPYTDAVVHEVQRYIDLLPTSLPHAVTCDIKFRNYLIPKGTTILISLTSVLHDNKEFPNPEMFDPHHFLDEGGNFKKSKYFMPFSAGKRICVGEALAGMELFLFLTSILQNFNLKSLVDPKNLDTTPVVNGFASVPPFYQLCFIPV

Question: With `COc1cccc2[nH]c(C(=O)N[C@@H](CC(C)C)C(=O)N[C@@H](C[C@@H]3CCNC3=O)C(=O)CO)cc12` [PF-00835231] as the compound, how does the EC50 (HCoV-229E; MRC5, MRC-5, minus efflux inhibitor, individual determinations by date) read?
Answer: 80.6 nM

Question: And the EC50 (HCoV-229E; MRC5, read-out: EC50 GeoMean (95% CI), efflux inhibitor CP-100356: 0)?
Answer: 69 nM

Question: What about the EC50 (HCoV-229E; MRC5, read-out: EC50 GeoMean (95% CI), efflux inhibitor CP-100356: 0.5 μM) of the same compound?
Answer: 80 nM

Question: And the solubility at 48 h (Solubility measurement; deionized water and pH buffers)?
Answer: < 100 µg/mL

Question: What about the solubility (Solubility measurement; standard solubilizing excipients, aqueous with cosolvent or surfactant or cyclodextrin) of the same compound?
Answer: 500 µg/mL (≈ 1060 µM)

Question: And the “Percent of Control Activity” value (CYP2C9; CYP 2C9, 0.1 µM, 30-Minute Preincubation, 0.1 µM)?
Answer: 101.5% and 104.7%

Question: And the “Percent of Control Activity” value (CYP2C9; CYP 2C9, 0.1 µM, Zero-Minute Preincubation, 0.1 µM)?
Answer: 113.8% and 92.8%

Question: What about the “Percent of Control Activity” value (CYP2C9; CYP 2C9, 0.214 µM, 30-Minute Preincubation, 0.214 µM) of the same compound?
Answer: 103.1% and 106.7%

Question: What about the “Percent of Control Activity” value (CYP2C9; CYP 2C9, 0.214 µM, Zero-Minute Preincubation, 0.214 µM) of the same compound?
Answer: 100.5% and 101.3%

Question: And the “Percent of Control Activity” value (CYP2C9; CYP 2C9, 0.979 µM, 30-Minute Preincubation, 0.979 µM)?
Answer: 104.6% and 107.1%

Question: What about the “Percent of Control Activity” value (CYP2C9; CYP 2C9, 0.979 µM, Zero-Minute Preincubation, 0.979 µM) of the same compound?
Answer: 107.0%

Question: And the “Percent of Control Activity” value (CYP2C9; CYP 2C9, 2.09 µM, 30-Minute Preincubation, 2.09 µM)?
Answer: 102.9% and 114.0%

Question: What about the “Percent of Control Activity” value (CYP2C9; CYP 2C9, 2.09 µM, Zero-Minute Preincubation, 2.09 µM) of the same compound?
Answer: 97.5%

Question: And the “Percent of Control Activity” value (CYP2C9; CYP 2C9, 4.48 µM, 30-Minute Preincubation, 4.48 µM)?
Answer: 102.5% and 104.2%

Question: And the “Percent of Control Activity” value (CYP2C9; CYP 2C9, 4.48 µM, Zero-Minute Preincubation, 4.48 µM)?
Answer: 95.3% and 94.9%

Question: And the “Percent of Control Activity” value (CYP2C9; CYP 2C9, 20.5 µM, 30-Minute Preincubation, 20.5 µM)?
Answer: 101.2% and 96.3%

Question: And the “Percent of Control Activity” value (CYP2C9; CYP 2C9, 20.5 µM, Zero-Minute Preincubation, 20.5 µM)?
Answer: 93.2%

Question: What about the “Percent of Control Activity” value (CYP2C9; CYP 2C9, 43.8 µM, 30-Minute Preincubation, 43.8 µM) of the same compound?
Answer: 91.9% and 89.1%

Question: What about the “Percent of Control Activity” value (CYP2C9; CYP 2C9, 43.8 µM, Zero-Minute Preincubation, 43.8 µM) of the same compound?
Answer: 85.3% and 88.3%

Question: And the “Percent of Control Activity” value (CYP2C9; CYP 2C9, 93.5 µM, 30-Minute Preincubation, 93.5 µM)?
Answer: 76.4% and 76.0%

Question: What about the “Percent of Control Activity” value (CYP2C9; CYP 2C9, 93.5 µM, Zero-Minute Preincubation, 93.5 µM) of the same compound?
Answer: 76.7% and 76.3%

Question: What about the “Percent of Control Activity” value (CYP2C9; CYP 2C9, 200 µM, 30-Minute Preincubation, 200 µM) of the same compound?
Answer: 74.9% and 59.1%

Question: What about the “Percent of Control Activity” value (CYP2C9; CYP 2C9, 200 µM, Zero-Minute Preincubation, 200 µM) of the same compound?
Answer: 71.9%

Question: And the IC50 (CYP2C9; human, microsomes, pH 7.4)?
Answer: > 200000 nM

Question: What about the activity at 0.1 µM (CYP2C9; human, microsomes, pH 7.4, Percent of Control Activity, CYP 2C9, 0.1 µM, 30-Minute Preincubation) of the same compound?
Answer: 108%

Question: What about the activity at 0.214 µM (CYP2C9; human, microsomes, pH 7.4, Percent of Control Activity, CYP 2C9, 0.214 µM, 30-Minute Preincubation) of the same compound?
Answer: 102%

Question: What about the activity at 0.214 µM (CYP2C9; human, microsomes, pH 7.4, Percent of Control Activity, CYP 2C9, 0.214 µM, Zero-Minute Preincubation) of the same compound?
Answer: 102%

Question: What about the activity at 0.979 µM (CYP2C9; human, microsomes, pH 7.4, Percent of Control Activity, CYP 2C9, 0.979 µM, 30-Minute Preincubation) of the same compound?
Answer: 103%

Question: What about the activity at 0.979 µM (CYP2C9; human, microsomes, pH 7.4, Percent of Control Activity, CYP 2C9, 0.979 µM, Zero-Minute Preincubation) of the same compound?
Answer: 99.1%

Question: And the activity at 2.09 µM (CYP2C9; human, microsomes, pH 7.4, Percent of Control Activity, CYP 2C9, 2.09 µM, 30-Minute Preincubation)?
Answer: 99.5%

Question: What about the activity at 2.09 µM (CYP2C9; human, microsomes, pH 7.4, Percent of Control Activity, CYP 2C9, 2.09 µM, Zero-Minute Preincubation) of the same compound?
Answer: 110%

Question: And the activity at 4.48 µM (CYP2C9; human, microsomes, pH 7.4, Percent of Control Activity, CYP 2C9, 4.48 µM, 30-Minute Preincubation)?
Answer: 102%

Question: What about the activity at 4.48 µM (CYP2C9; human, microsomes, pH 7.4, Percent of Control Activity, CYP 2C9, 4.48 µM, Zero-Minute Preincubation) of the same compound?
Answer: 98.5%

Question: What about the activity at 20.5 µM (CYP2C9; human, microsomes, pH 7.4, Percent of Control Activity, CYP 2C9, 20.5 µM, 30-Minute Preincubation) of the same compound?
Answer: 96.7%

Question: And the activity at 20.5 µM (CYP2C9; human, microsomes, pH 7.4, Percent of Control Activity, CYP 2C9, 20.5 µM, Zero-Minute Preincubation)?
Answer: 104%

Question: What about the activity at 43.8 µM (CYP2C9; human, microsomes, pH 7.4, Percent of Control Activity, CYP 2C9, 43.8 µM, 30-Minute Preincubation) of the same compound?
Answer: 101%

Question: And the activity at 43.8 µM (CYP2C9; human, microsomes, pH 7.4, Percent of Control Activity, CYP 2C9, 43.8 µM, Zero-Minute Preincubation)?
Answer: 85.2%

Question: What about the activity at 93.5 µM (CYP2C9; human, microsomes, pH 7.4, Percent of Control Activity, CYP 2C9, 93.5 µM, 30-Minute Preincubation) of the same compound?
Answer: 92%

Question: And the activity at 93.5 µM (CYP2C9; human, microsomes, pH 7.4, Percent of Control Activity, CYP 2C9, 93.5 µM, Zero-Minute Preincubation)?
Answer: 92.6%

Question: What about the activity at 200 µM (CYP2C9; human, microsomes, pH 7.4, Percent of Control Activity, CYP 2C9, 200 µM, 30-Minute Preincubation) of the same compound?
Answer: 77.1%

Question: What about the activity at 200 µM (CYP2C9; human, microsomes, pH 7.4, Percent of Control Activity, CYP 2C9, 200 µM, Zero-Minute Preincubation) of the same compound?
Answer: 74.3%

Question: And the “Percent of Control Activity” value (CYP2D6; CYP 2D6, 0.1 µM, 30-Minute Preincubation, 0.1 µM)?
Answer: 92.9% and 101.4%

Question: And the “Percent of Control Activity” value (CYP2D6; CYP 2D6, 0.1 µM, Zero-Minute Preincubation, 0.1 µM)?
Answer: 87.8% and 108.7%

Question: What about the “Percent of Control Activity” value (CYP2D6; CYP 2D6, 0.214 µM, 30-Minute Preincubation, 0.214 µM) of the same compound?
Answer: 106.1%

Question: What about the “Percent of Control Activity” value (CYP2D6; CYP 2D6, 0.214 µM, Zero-Minute Preincubation, 0.214 µM) of the same compound?
Answer: 101.0% and 100.2%

Question: And the “Percent of Control Activity” value (CYP2D6; CYP 2D6, 0.979 µM, 30-Minute Preincubation, 0.979 µM)?
Answer: 107.3% and 99.0%

Question: What about the “Percent of Control Activity” value (CYP2D6; CYP 2D6, 0.979 µM, Zero-Minute Preincubation, 0.979 µM) of the same compound?
Answer: 96.4% and 103.2%

Question: What about the “Percent of Control Activity” value (CYP2D6; CYP 2D6, 2.09 µM, 30-Minute Preincubation, 2.09 µM) of the same compound?
Answer: 102.6% and 103.8%

Question: And the “Percent of Control Activity” value (CYP2D6; CYP 2D6, 2.09 µM, Zero-Minute Preincubation, 2.09 µM)?
Answer: 96.1% and 107.2%

Question: And the “Percent of Control Activity” value (CYP2D6; CYP 2D6, 4.48 µM, 30-Minute Preincubation, 4.48 µM)?
Answer: 102.2% and 99.7%

Question: What about the “Percent of Control Activity” value (CYP2D6; CYP 2D6, 4.48 µM, Zero-Minute Preincubation, 4.48 µM) of the same compound?
Answer: 105.0% and 106.1%

Question: What about the “Percent of Control Activity” value (CYP2D6; CYP 2D6, 20.5 µM, 30-Minute Preincubation, 20.5 µM) of the same compound?
Answer: 113.8% and 117.9%

Question: What about the “Percent of Control Activity” value (CYP2D6; CYP 2D6, 20.5 µM, Zero-Minute Preincubation, 20.5 µM) of the same compound?
Answer: 108.8%

Question: And the “Percent of Control Activity” value (CYP2D6; CYP 2D6, 43.8 µM, 30-Minute Preincubation, 43.8 µM)?
Answer: 122.8% and 114.4%

Question: What about the “Percent of Control Activity” value (CYP2D6; CYP 2D6, 43.8 µM, Zero-Minute Preincubation, 43.8 µM) of the same compound?
Answer: 99.1% and 109.2%

Question: And the “Percent of Control Activity” value (CYP2D6; CYP 2D6, 93.5 µM, 30-Minute Preincubation, 93.5 µM)?
Answer: 122.0% and 119.6%

Question: What about the “Percent of Control Activity” value (CYP2D6; CYP 2D6, 93.5 µM, Zero-Minute Preincubation, 93.5 µM) of the same compound?
Answer: 100.2%

Question: What about the “Percent of Control Activity” value (CYP2D6; CYP 2D6, 200 µM, 30-Minute Preincubation, 200 µM) of the same compound?
Answer: 102.0% and 91.1%

Question: And the “Percent of Control Activity” value (CYP2D6; CYP 2D6, 200 µM, Zero-Minute Preincubation, 200 µM)?
Answer: 73.5% and 82.2%

Question: And the IC50 (CYP2D6; human, microsomes, pH 7.4)?
Answer: > 200000 nM

Question: What about the activity at 0.1 µM (CYP2D6; human, microsomes, pH 7.4, Percent of Control Activity, CYP 2D6, 0.1 µM, 30-Minute Preincubation) of the same compound?
Answer: 103%

Question: What about the activity at 0.214 µM (CYP2D6; human, microsomes, pH 7.4, Percent of Control Activity, CYP 2D6, 0.214 µM, 30-Minute Preincubation) of the same compound?
Answer: 102%

Question: What about the activity at 0.214 µM (CYP2D6; human, microsomes, pH 7.4, Percent of Control Activity, CYP 2D6, 0.214 µM, Zero-Minute Preincubation) of the same compound?
Answer: 98.6%

Question: And the activity at 0.979 µM (CYP2D6; human, microsomes, pH 7.4, Percent of Control Activity, CYP 2D6, 0.979 µM, 30-Minute Preincubation)?
Answer: 104%

Question: And the activity at 0.979 µM (CYP2D6; human, microsomes, pH 7.4, Percent of Control Activity, CYP 2D6, 0.979 µM, Zero-Minute Preincubation)?
Answer: 97.7%

Question: And the activity at 2.09 µM (CYP2D6; human, microsomes, pH 7.4, Percent of Control Activity, CYP 2D6, 2.09 µM, 30-Minute Preincubation)?
Answer: 104%

Reference: paper PMC8523698, “Preclinical characterization of an intravenous coronavirus 3CL protease inhibitor for the potential treatment of COVID19” (Nature Communications, 2021)
